{
  "source": "patent US9730445B2",
  "about": "“Herbicidal compositions comprising 4-amino-3-chloro-5-fluoro-6-(4-chloro-2-fluoro-3-methoxyphenyl) pyridine-2-carboxylic acid or a derivative thereof and fungicides” (DOW AGROSCIENCES LLC, priority 2013, dated 2017)",
  "key": {"[1]": {"test_system": "LEFCH", "assay": "In-water applied weed control, transplanted paddy rice (greenhouse)", "assay_type": "in vivo, Leptochloa chinensis (L.) Nees (Chinese sprangletop)", "procedure": "Weed seeds or nutlets of the desired test plant species were planted in puddled soil (mud) prepared by mixing a shredded, non-sterilized mineral soil (50.5 percent silt, 25.5 percent clay, and 24 percent sand, with a pH of about 7.6 and an organic matter content of about 2.9 percent) and water at a 1:1 volumetric ratio. The prepared mud was dispensed in 365 mL aliquots into 16-ounce (oz.) non-perforated plastic pots with a surface area of 86.59 square centimeters (cm^2) leaving a headspace of 3 centimeters (cm) in each pot. Rice seeds were planted in Sun Gro MetroMix® 306 planting mixture, which typically has a pH of 6.0 to 6.8 and an organic matter content of about 30 percent, in plastic plug trays. Seedlings at the second or third leaf stage of growth were transplanted into 860 mL of mud contained in 32-oz. non-perforated plastic pots with a surface area of 86.59 cm^2 4 days prior to herbicide application. The paddy was created by filling the headspace of the pots with 2.5 to 3 cm of water. When required to ensure good germination and healthy plants, a fungicide treatment and/or other chemical or physical treatment was applied. The plants were grown for 4-22 days in a greenhouse with an approximate 14 hour (h) photoperiod which was maintained at about 29° C. during the day and about 26° C. during the night. Nutrients were added as Osmocote® (17:6:10, N:P:K+minor nutrients) at 2 g per cup. Water was added on a regular basis to maintain the paddy flood, and supplemental lighting was provided with overhead metal halide 1000-Watt lamps as necessary. The plants were employed for testing when they reached the first through fourth true leaf stage. […]\nTreatment requirements for each compound or fungicidal component were calculated based upon the rates being tested, the concentration of active ingredient or acid equivalent in the formulation, an application volume of 2 mL per component per pot, and an application area of 86.59 cm^2 per pot.\nFor formulated compounds, a measured amount was placed in an individual 100 or 200 mL glass vial and was dissolved in a volume of 1.25% (v/v) Agri-Dex® crop oil concentrate to obtain application solutions. […]\nThe treated plants and control plants were placed in a greenhouse as described above and water was added as needed to maintain a paddy flood. After approximately 3 weeks the condition of the test plants as compared with that of the untreated plants was determined visually and scored on a scale of 0 to 100 percent where 0 corresponds to no injury or growth inhibition and 100 corresponds to complete kill. […]"}, "[2]": {"test_system": "CYPIR", "assay": "Postemergence foliar-applied weed control, direct-seeded rice (greenhouse)", "assay_type": "in vivo, Cyperus iria L. (rice flatsedge)", "details": "21 DAA"}},
  "note": "“And” between values parts separate entries of the source, which are not always exact repeats. Identical values can stand only once.",
  "data": [
    {"smiles": "COc1c(Cl)ccc(-c2nc(C(=O)OCc3ccccc3)c(Cl)c(N)c2F)c1F", "note": "[Compound A Benzyl Ester]", "values": [
      {"measurement": "Visual Weed Control (%) - 19 DAA LEFCH Obs", "setting": "[1]; Compound A Benzyl Ester 8 g ae/ha", "result": 3, "unit": "%"},
      {"measurement": "Visual Weed Control (%) - 19 DAA LEFCH Obs", "setting": "[1]; Compound A Benzyl Ester 16 g ae/ha", "result": 8, "unit": "%"},
      {"measurement": "Visual Weed Control (%) - 21 DAA CYPIR Obs", "setting": "[2]; r23-24 ester 16/32 g ae/ha alone, r25 pyroquilon 925 g ai/ha alone, r26-27 ester 16/32 + 925", "result": "85% and 99%"},
      {"measurement": "Visual Weed Control (%) - 21 DAA CYPIR Obs", "setting": "[2]; r26-27 ester 16/32 g ae/ha alone, r28-29 isoprothiolane 266/533 g ai/ha alone, r30-33 ester 16/32 at each of 266, 533", "result": "85% and 99%"},
      {"measurement": "Visual Weed Control (%)—21 DAA CYPIR Obs", "setting": "[2]; r29-30 ester 8/16 g ae/ha alone, r31-33 kasugamycin 17.5/35/70 g ai/ha alone, r34-39 ester 8/16 at each of 17.5, 35, 70", "result": "50% and 70%"},
      {"measurement": "Visual Weed Control (%)—21 DAA CYPIR Obs", "setting": "[2]; r45 ester 8 g ae/ha alone, r46-48 hexaconazole 25/50/100 g ai/ha alone, r49-51 ester 8 + 25/50/100", "result": 35, "unit": "%"}
    ]}
  ]
}
